Series [1] concerns the target T1, NLRP3 (Mus musculus, UniProt Q8R4B8). The series can be described thus: Inhibition of canonical NLRP3 activation (LPS+ATP/Nig) in J774A.1 cells, IL-1β release by ELISA, single concentration. It is filed as cell-based. The note with it: J774.A1, 1 µM compound, LPS + 5 mM ATP or 10 µM Nig, compared with the positive control, read-out: inhibition of IL-1β release. On the set-up: The mouse macrophage cell line J774A.1 was used, and LPS was used as the first signal; host or cells: J774A.1 mouse monocyte-macrophage cell line. The procedure: J774A.1 cells were plated in a 48-well plate at a density of 1.0×10^6 cells/mL, with 300 µL per well. Subsequently, NLRP3 was activated using LPS+5 mM ATP (adenosine triphosphate) or 10 µM Nig (nigericin). […] ATP was purchased from Sigma, Cat. No.: L2654. Nig was purchased from Shanghai Yuanye Bio-Technology Co., Ltd., Cat. No.: S45490.
Experimental groups: a negative control group, an LPS-alone incubation control group, an LPS+ATP or +Nig positive control group, and an example compound experimental group.
After the plated J774A.1 cells adhering to the plate, the culture medium was replaced. For all the groups except the negative control group, the culture medium was completely replaced with cell culture medium containing 1 µg/mL LPS. The negative control group received cell culture medium. Then, all the groups were incubated overnight. 18 h later, the culture medium was replaced again. The culture medium of the example compound experimental group was completely replaced with cell culture medium containing the compounds; while the negative control group, the LPS-alone incubation control group, and the LPS+ATP/Nig positive control group received cell culture medium. 1 h later, the culture mediums of the LPS+ATP/Nig positive control group and the example compound experimental group were completely replaced with cell culture medium containing 5 mM ATP or 10 µM Nig. 1 h later, the cell supernatants were collected for IL-1β detection.
Therefore, the relative change in the amount of IL-1β release may directly reflect NLRP3 inhibitory effect.
(An ELISA detects its analyte on a solid surface through an enzyme-linked reagent.)

For series [2], the target named is T1, NLRP3. The series can be described thus: Inhibition curves (IC50) of canonical NLRP3 activation in J774A.1 cells, IL-1β release. On the set-up: The mouse macrophage cell line J774A.1 was used, and LPS was used as the first signal; host or cells: J774A.1 mouse monocyte-macrophage cell line. It is filed as cell-based. The following applies: J774A.1 cell LPS+Nig activation model. The procedure:
J774A.1 cells were plated in a 48-well plate at a density of 1.0×10^6 cells/mL, with 300 µL per well. Subsequently, NLRP3 was activated by LPS+ATP or LPS+Nig. […] ATP was purchased from Sigma, Cat. No.: L2654. Nig was purchased from Shanghai Yuanye Bio-Technology Co., Ltd., Cat. No.: S45490.
Experimental groups: a negative control group, an LPS-alone incubation control group, an LPS+ATP/Nig positive control group, and an example compound experimental group with different concentrations.
After the plated J774A.1 cells adhering to the plate, the culture medium was replaced. For all the groups except the negative control group, the culture medium was completely replaced with cell culture medium containing 1 µg/mL LPS. The negative control group received cell culture medium. Then, all the groups were incubated overnight. 18 h later, the culture medium was replaced again. The culture medium of the example compound experimental group was completely replaced with culture medium containing different concentrations of compounds; while the negative control group, the LPS-alone incubation control group, and the LPS+ATP/Nig positive control group received cell culture medium. 1 h later, the culture mediums of the LPS+ATP/Nig positive control group and the example compound experimental group with different concentrations were completely replaced with cell culture medium containing 5 mM ATP or 10 µM Nig. 1 h later, the cell supernatants were collected for IL-1β detection.
(§1) Therefore, the relative change in the amount of IL-1β release may directly reflect NLRP3 inhibitory effect. The inhibitory effect of the compounds varies with different concentrations, and based on this, an inhibition curve can be constructed, and the inhibitory effects of the compounds were assessed by IC50.

For series [3], the target named is T1, NLRP3. In words: Inhibition of APOE peptide-induced NLRP3 activation in J774A.1 cells, IL-1β release. It is filed as cell-based. More on the design: The mouse macrophage cell line J774A.1 was used, and LPS was used as the first signal; host or cells: J774A.1 mouse monocyte-macrophage cell line. The note with it: J774.A1, 10 µM compound, 30 µg/mL APOE peptide. Here is the method: J774A.1 cells were plated in a 48-well plate at a density of 1.0×10^6 cells/mL, with 300 µL per well. Subsequently, NLRP3 was activated by APOE peptide. The cell culture medium comprises: DMEM (brand: Gibco, Cat. No.: C12430500) + 10% fetal bovine serum (brand: Gibco, Cat. No.: 10099-141) + 1% sodium pyruvate (brand: Gibco, Cat. No.: 11360-070) + 1% penicillin-streptomycin solution (brand: Solarbio, Cat. No.: P1400). The J774A.1 mouse monocyte-macrophage cell line was purchased from the Cell Resource Center of the Institute of Basic Medical Sciences of Chinese Academy of Medical Sciences (Resource No. 1101MOU-PUMC000222). APOE2/3 peptide 1-151 was obtained through recombinant protein expression and purification by Biocells (Beijing) Biotech Co., Ltd. The procedures were as follows: the sequence (SEQ ID NO: 1) shown below was inserted into the pET-28A plasmid and transformed into BL-21(DE3) expression strain; the expression of target protein was induced with IPTG at a low temperature; after collecting the bacteria via centrifugation, ultrasonic disruption was performed; and after centrifugation, the supernatant was purified by nickel ion affinity chromatography (AKTA pure), and then the product was concentrated by ultrafiltration and identified by BCA+protein electrophoresis. Sequence: [formula]
Experimental groups: a negative control group, an APOE treatment control group, and an example compound experimental group.
After the plated J774A.1 cells adhering to the plate, the culture medium was replaced. The culture medium of the APOE treatment control group was replaced with cell culture medium containing 30 µg/mL APOE peptide, the culture medium of the example compound experimental group was replaced with culture medium containing 30 µg/mL APOE peptide combined with the compounds, and the negative control group received cell culture medium. Then, all the groups were incubated overnight. 18 h later, the cell supernatants were collected for IL-1β detection.
Activation of NLRP3 by APOE peptide will result in release of mature IL-1β, and the release can be inhibited by NLRP3 inhibitors. Therefore, the relative change in the amount of IL-1β release may directly reflect NLRP3 inhibitory effect.
In this experimental example, effective inhibition refers to a reduction of 70% or more in the release amount, compared with the release amount of the positive control minus the negative control.

Series [4] is described as follows: Mouse pharmacokinetics after intravenous administration (plasma and brain, LC-MS). The note with it: C57 mice, intravenous 5 mg/kg; for concentration at 120 min: brain after cardiac perfusion, read-out: brain drug concentration at 120 min; for half-life / AUC: plasma; for AUC: read-out: area under the curve (AUC) from 1 to 120 min. Format: in vivo. The procedure:
C57 mice were administered intravenously, at a dosage concentration of 5 mg/kg in each group. Retro-orbital blood collection was performed on the mice at 1 min, 30 min, 1 h, and 2 h post-dosing. The collected blood was centrifuged at 3000 rpm for 10 min at 4 °C to obtain plasma. Acetonitrile was added at a 1:3 volume ratio of plasma: acetonitrile to precipitate proteins. After centrifugation, the supernatant was collected and filtered. The concentration of the compound was detected using LC-MS (Agilent 1260-G6125, SIM mode). In addition, 2 h after drug injection, the mice were subjected to cardiac perfusion and then their brains were harvested. Following tissue homogenization and centrifugation, the supernatant was collected. Acetonitrile was added at a 1:3 volume ratio of supernatant: acetonitrile to precipitate proteins. After centrifugation, the supernatant was collected and filtered. The concentration of the compound was detected using LC-MS (Agilent 1260-G6125, SIM mode).
(§2) Experimental groups: a vehicle control group, and a dosing group.

Series [5] concerns the target T2, NLRP3 (Homo sapiens, UniProt Q96P20). The series can be described thus: Inhibition of canonical NLRP3 activation (LPS+Nig) in PMA-differentiated THP-1 cells, IL-1β release, single concentration. The note with it: 1 µM compound, FIG. 6 legend.
The target in series [6] is T2, NLRP3. The series can be described thus: Inhibition curves (IC50) of canonical NLRP3 activation (LPS+Nig) in THP-1 cells, IL-1β release. On the set-up: host or cells: THP-1 human acute monocytic leukemia cell line, PMA-differentiated. The following applies: THP-1 cell LPS+Nig activation model. Format: cell-based. The procedure:
Nig was purchased from Shanghai Yuanye Bio-Technology Co., Ltd., Cat. No.: S45490.
The cells were incubated overnight.
as §1

A short description of series [7]: Rat plasma pharmacokinetics after intravenous administration (LC-MS). Format: in vivo. The note with it: SD rats, intravenous 2.5 mg/kg. The procedure: SD rats were administered intravenously, at a dosage concentration of 2.5 mg/kg in each group. Blood was collected at the time points of 1 min, 30 min, 1 h, 2 h, 4 h, 6 h, and 24 h. The collected blood was centrifuged at 3000 rpm for 10 min at 4 °C to obtain plasma. Acetonitrile was added at a 1:3 volume ratio of plasma: acetonitrile to precipitate proteins. After centrifugation, the supernatant was collected and filtered. The concentration of the compound was detected using LC-MS (Agilent 1260-G6125, SIM mode).
as §2

Here are results for nine compounds from EP4796530A1 (Biocells (Beijing) Biotech Co., Ltd., priority 2023, dated 2025).

pIC50: −log10 of the molar value. Where only a bound is given, the exact number is not on record here.

Usually inhibition stands for the change of the read-out against control, counted positive when it falls. Broadly, the pIC50 is the negative decadic logarithm of the IC50, by convention in mol/L. High values mean a small IC50, low ones a large IC50. One may read the half-life as how long it takes for the measured level to halve. By AUC is commonly meant concentration integrated over time.

T1 sequence (Q8R4B8 whole entry): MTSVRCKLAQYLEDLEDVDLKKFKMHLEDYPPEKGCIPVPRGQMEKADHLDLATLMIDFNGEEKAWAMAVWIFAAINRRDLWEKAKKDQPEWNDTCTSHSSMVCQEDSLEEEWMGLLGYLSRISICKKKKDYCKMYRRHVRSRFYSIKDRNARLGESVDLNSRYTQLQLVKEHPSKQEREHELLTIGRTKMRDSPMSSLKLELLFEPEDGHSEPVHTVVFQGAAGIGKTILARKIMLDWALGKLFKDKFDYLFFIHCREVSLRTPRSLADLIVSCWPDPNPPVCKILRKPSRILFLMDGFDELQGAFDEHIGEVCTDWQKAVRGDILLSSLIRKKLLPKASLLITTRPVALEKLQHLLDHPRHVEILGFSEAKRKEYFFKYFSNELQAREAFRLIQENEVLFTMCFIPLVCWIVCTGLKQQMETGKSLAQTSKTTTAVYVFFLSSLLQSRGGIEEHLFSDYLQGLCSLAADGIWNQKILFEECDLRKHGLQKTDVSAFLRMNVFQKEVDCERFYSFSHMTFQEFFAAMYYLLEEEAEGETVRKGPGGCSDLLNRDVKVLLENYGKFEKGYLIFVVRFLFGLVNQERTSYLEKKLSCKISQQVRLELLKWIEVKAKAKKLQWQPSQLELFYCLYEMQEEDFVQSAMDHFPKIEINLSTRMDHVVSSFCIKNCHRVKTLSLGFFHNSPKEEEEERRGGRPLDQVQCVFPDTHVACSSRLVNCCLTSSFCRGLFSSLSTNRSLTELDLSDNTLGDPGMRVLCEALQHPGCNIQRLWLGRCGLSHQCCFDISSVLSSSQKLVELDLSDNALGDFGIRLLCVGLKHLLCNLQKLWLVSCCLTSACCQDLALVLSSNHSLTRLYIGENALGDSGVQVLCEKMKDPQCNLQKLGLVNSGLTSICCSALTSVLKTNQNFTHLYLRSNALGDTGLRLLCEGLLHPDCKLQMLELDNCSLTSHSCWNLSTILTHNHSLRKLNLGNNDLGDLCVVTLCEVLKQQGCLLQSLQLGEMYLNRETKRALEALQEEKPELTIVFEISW
T2 sequence (Q96P20 whole entry): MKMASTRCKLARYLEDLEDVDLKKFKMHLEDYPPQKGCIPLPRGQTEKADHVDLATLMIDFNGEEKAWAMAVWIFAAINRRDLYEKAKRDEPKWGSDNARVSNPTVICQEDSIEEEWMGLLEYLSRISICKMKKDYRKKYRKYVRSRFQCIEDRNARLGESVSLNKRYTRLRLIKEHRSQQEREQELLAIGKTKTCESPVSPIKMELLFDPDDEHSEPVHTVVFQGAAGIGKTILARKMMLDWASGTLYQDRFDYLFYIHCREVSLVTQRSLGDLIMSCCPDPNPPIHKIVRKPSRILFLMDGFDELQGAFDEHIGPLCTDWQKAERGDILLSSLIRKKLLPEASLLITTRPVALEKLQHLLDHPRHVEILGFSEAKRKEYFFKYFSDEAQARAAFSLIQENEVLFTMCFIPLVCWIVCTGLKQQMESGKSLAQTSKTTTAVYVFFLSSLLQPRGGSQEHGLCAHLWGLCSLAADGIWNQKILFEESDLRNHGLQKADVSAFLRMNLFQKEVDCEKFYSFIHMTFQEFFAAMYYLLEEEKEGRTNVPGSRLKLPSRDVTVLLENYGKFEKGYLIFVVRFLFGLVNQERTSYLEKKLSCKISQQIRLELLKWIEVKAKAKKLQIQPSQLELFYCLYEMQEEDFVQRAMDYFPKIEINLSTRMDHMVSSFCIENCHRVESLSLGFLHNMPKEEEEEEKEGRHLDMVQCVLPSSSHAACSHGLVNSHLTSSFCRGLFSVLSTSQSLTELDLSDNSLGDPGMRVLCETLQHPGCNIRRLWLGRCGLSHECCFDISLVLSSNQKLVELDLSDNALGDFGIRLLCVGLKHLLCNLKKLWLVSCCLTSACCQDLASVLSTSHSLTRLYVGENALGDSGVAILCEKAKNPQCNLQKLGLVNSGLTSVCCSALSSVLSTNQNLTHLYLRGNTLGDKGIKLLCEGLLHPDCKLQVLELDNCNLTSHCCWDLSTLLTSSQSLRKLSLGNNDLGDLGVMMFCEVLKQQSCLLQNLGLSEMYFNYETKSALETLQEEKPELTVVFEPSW

In the case of `CN(C)Cc1cccc(S(=O)(=O)NC(=O)Nc2c3c(cc4c2CCC4)CCC3)c1Cl` [Example 1, 2-chloro-3-((dimethylamino)methyl)-N-((1,2,3,5,6,7-hexahydro-s-indacen-4-yl)carbamoyl)benzenesulfonamide], in series [1], the inhibition at 1 µM is greater than 80%. This compound also showed a pIC50 in series [2] of 7.19.
In the case of `CN(C)Cc1cc(S(=O)(=O)NC(=O)Nc2c3c(cc4c2CCC4)CCC3)cc(F)c1O` [Example 17, 3-((dimethylamino)methyl)-5-fluoro-N-((1,2,3,5,6,7-hexahydro-s-indacen-4-yl)carbamoyl)-4-hydroxybenzenesulfonamide], the inhibition at 1 µM in series [1] is greater than 80%. This compound came in with an inhibition at 10 µM in series [3] of no less than 70%. In addition, in series [4], the concentration at 120 min was found to be 184 ng/mL, the half-life was 3.85 h and the AUC was determined as 15500 ng·h/mL. Besides, the “reduction in release amount compared with that of the positive control minus the LPS-alone control” value in series [5] is listed as no less than 75%. The compound further had a pIC50 in series [2] of 6.71.
On to `CN(C)Cc1cc(S(=O)(=O)NC(=O)Nc2c3c(cc4c2CCC4)CCC3)c(F)cc1N` [Example 22, 4-amino-5-((dimethylamino)methyl)-2-fluoro-N-((1,2,3,5,6,7-hexahydros-indacen-4-yl)carbamoyl)benzenesulfonamide], for which the inhibition at 1 µM in series [1] was greater than 80%. This compound showed an inhibition at 10 µM in series [3] of no less than 70%. Further, the pIC50 in series [2] is 6.89.
As for `CN(C)Cc1ccc(F)c(S(=O)(=O)NC(=O)Nc2c3c(cc4c2CCC4)CCC3)c1F` [Example 25, 3-((dimethylamino)methyl)-2,6-difluoro-N-((1,2,3,5,6,7-hexahydro-s-indacen-4-yl)carbamoyl)benzenesulfonamide], the inhibition at 1 µM in series [1] was greater than 80%. The compound also yielded an inhibition at 10 µM in series [3] of no less than 70%.
Regarding `Cc1c(CN(C)C)cccc1S(=O)(=O)NC(=O)Nc1c2c(cc3c1CCC3)CCC2` [Example 26, 3-((dimethylamino)methyl)-N-((1,2,3,5,6,7-hexahydro-s-indacen-4-yl)carbamoyl)-2-methylbenzenesulfonamide], the inhibition at 1 µM in series [1] is greater than 80%. In series [3], this compound returned an inhibition at 10 µM of no less than 70%. The compound further gave a pIC50 in series [2] of 7.09.
Turning to `Cc1c(S(=O)(=O)NC(=O)Nc2c3c(cc4c2CCC4)CCC3)ccc(O)c1CN(C)C` [Example 30, 3-((dimethylamino)methyl)-N-((1,2,3,5,6,7-hexahydro-s-indacen-4-yl)carbamoyl)-4-hydroxy-2-methylbenzenesulfonamide], the pIC50 in series [6] is 7.44; in series [2], 6.84.
For `CN(C)Cc1c(O)ccc(S(=O)(=O)NC(=O)Nc2c3c(cc4c2CCC4)CCC3)c1F` [Example 31, 3-((dimethylamino)methyl)-2-fluoro-N-((1,2,3,5,6,7-hexahydro-s-indacen-4-yl)carbamoyl)-4-hydroxybenzenesulfonamide], in series [2], the pIC50 was 6.69.
Still for that read-out and setting: next, `CN(C)C1CCOc2c1cccc2S(=O)(=O)NC(=O)Nc1c2c(cc3c1CCC3)CCC2` (centres unmarked) [Example 32, 4-(dimethylamino)-N-((1,2,3,5,6,7-hexahydro-s-indacen-4-yl)carbamoyl)chromane-8-sulfonamide]: 6.41.
In the case of `CC(C)(O)c1coc(S(=O)(=O)NC(=O)Nc2c3c(cc4c2CCC4)CCC3)c1` [MCC950, reference compound], the half-life in series [7] came out at 0.267 h; in series [4], 1.28 h. Further, the AUC stood at 4380 ng·h/mL in series [7] (read-out: AUC from 1 to 1440 min) and 29600 ng·h/mL in series [4]. Besides, the concentration at 120 min in series [4] amounted to 0 ng/mL.
